Source: patent publication US20160002204A1 (Board of Regents, The University of Texas System, priority 2014, published 2016)

Columns and labels:
[1] = target: T1, GLS1 (purified recombinant human GAC) (Homo sapiens, UniProt O94925); experiment: GLS1 enzymatic activity assay (dual-coupled, Amplex UltraRed/resorufin); type: biochemical
T1 sequence (O94925 55-598 isoform O94925-3 limits assumed): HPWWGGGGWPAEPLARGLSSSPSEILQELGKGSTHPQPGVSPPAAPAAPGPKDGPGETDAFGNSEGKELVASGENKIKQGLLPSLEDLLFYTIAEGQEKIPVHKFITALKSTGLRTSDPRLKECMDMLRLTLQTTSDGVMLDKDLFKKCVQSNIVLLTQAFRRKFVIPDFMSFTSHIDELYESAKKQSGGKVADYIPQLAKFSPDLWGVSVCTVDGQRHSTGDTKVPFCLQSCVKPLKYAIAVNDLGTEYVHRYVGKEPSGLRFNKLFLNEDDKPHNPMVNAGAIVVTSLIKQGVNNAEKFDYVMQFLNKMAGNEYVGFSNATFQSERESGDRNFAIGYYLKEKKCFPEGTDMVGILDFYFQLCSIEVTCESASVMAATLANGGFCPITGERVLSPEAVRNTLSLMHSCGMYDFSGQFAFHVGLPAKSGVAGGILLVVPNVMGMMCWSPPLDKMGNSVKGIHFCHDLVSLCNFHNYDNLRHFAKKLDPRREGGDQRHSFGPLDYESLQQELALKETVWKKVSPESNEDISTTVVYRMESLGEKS
Procedure, shortened: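 Recombinant human GAC (2 nM) preincubated with 50 mM potassium phosphate, then inhibitor (10 min each, RT); 1 mM glutamine, pH 7.4 Hepes buffer, 1% DMSO. Glutamate coupled via glutamate oxidase/HRP to resorufin (Ex 530/Em 590), kinetic or 20-min endpoint; IC50 by four-parameter logistic fit.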

A549 cells = experiment: A549 proliferation (viability) assay, Cell Titer Fluor, 72 hours; type: cell-based; settings: Homo sapiens
Procedure, shortened: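 Fluorescence read-out (Cell Titer Fluor, 30 min at 37 °C after reagent) after 72 h compound exposure of A549 cells; EC50 by four-parameter logistic curve fit. Cells: 1000/well, RPMI 1640 + 10% dialyzed FBS, 0.5% DMSO final.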

| IC50 [1] [nM] | EC50 (A549 cells) [nM] | SMILES |
| --- | --- | --- |
| 100 to 500 | 500 to 5000 | Cc1ccc(CNC(=O)c2cn(CC(F)CCn3ccc(NC(=O)CC4CCCCO4)cc3=O)nn2)cn1 (centres unmarked) [Example 195, 1-(2-fluoro-4-{4-[2-(oxan-2-yl)acetamido]-2-oxo-1,2-dihydropyridin-1-yl}butyl)-N-[(6-methylpyridin-3-yl)methyl]-1H-1,2,3-triazole-4-carboxamide] |
| < 100 | 500 to 5000 | Cc1ccc(CNC(=O)c2cn(CC(F)CCn3ccc(NC(=O)CC4CCOCC4)cc3=O)nn2)cn1 (centres unmarked) [Example 197, 1-(2-fluoro-4-{4-[2-(oxan-4-yl)acetamido]-2-oxo-1,2-dihydropyridin-1-yl}butyl)-N-[(6-methylpyridin-3-yl)methyl]-1H-1,2,3-triazole-4-carboxamide] |
| < 100 | 100 to 500 | Cc1ccc(CNC(=O)c2cn(CC(F)CCn3ccc(NC(=O)CC4CCSCC4)cc3=O)nn2)cn1 (centres unmarked) [Example 198, 1-(2-fluoro-4-{2-oxo-4-[2-(thian-4-yl)acetamido]-1,2-dihydropyridin-1-yl}butyl)-N-[(6-methylpyridin-3-yl)methyl]-1H-1,2,3-triazole-4-carboxamide] |
| < 100 | 100 to 500 | O=C(Cc1cccs1)Nc1ccn(CCCCn2cc(C(=O)NCc3cccc(OC(F)(F)F)c3)nn2)c(=O)c1 [Example 202, 1-(4-{2-oxo-4-[2-(thiophen-2-yl)acetamido]-1,2-dihydropyridin-1-yl}butyl)-N-{[3-(trifluoromethoxy)phenyl]methyl}-1H-1,2,3-triazole-4-carboxamide] |
| < 100 | < 100 | O=C(CC1CCCCO1)Nc1ccn(CCCCn2cc(C(=O)NCc3cccc(OC(F)(F)F)c3)nn2)c(=O)c1 (centres unmarked) [Example 206, 1-(4-{4-[2-(oxan-2-yl)acetamido]-2-oxo-1,2-dihydropyridin-1-yl}butyl)-N-{[3-(trifluoromethoxy)phenyl]methyl}-1H-1,2,3-triazole-4-carboxamide] |
| < 100 | 500 to 5000 | CNC1CCC(CC(=O)Nc2ccn(CCCCn3cc(C(=O)NCc4cccc(OC(F)(F)F)c4)nn3)c(=O)c2)CC1 (centres unmarked) [Example 209, 1-[4-(4-{2-[4-(methylamino)cyclohexyl]acetamido}-2-oxo-1,2-dihydropyridin-1-yl)butyl]-N-{[3-(trifluoromethoxy)phenyl]methyl}-1H-1,2,3-triazole-4-carboxamide] |
| < 100 | < 100 | O=C(CC1CCCC1)Nc1ccn(CCCCn2cc(C(=O)NCc3cccc(OC(F)(F)F)c3)nn2)c(=O)c1 [Example 210, 1-{4-[4-(2-cyclopentylacetamido)-2-oxo-1,2-dihydropyridin-1-yl]butyl}-N-{[3-(trifluoromethoxy)phenyl]methyl}-1H-1,2,3-triazole-4-carboxamide] |
| < 100 | < 100 | O=C(CC1CCCCC1)Nc1ccn(CCC(F)Cn2cc(C(=O)NCc3cccc(OC(F)(F)F)c3)nn2)c(=O)c1F (centres unmarked) [Example 212, 1-{4-[4-(2-cyclohexylacetamido)-3-fluoro-2-oxo-1,2-dihydropyridin-1-yl]-2-fluorobutyl}-N-{[3-(trifluoromethoxy)phenyl]methyl}-1H-1,2,3-triazole-4-carboxamide] |

Second part, the molecule before the results:

| SMILES | IC50 [1] [nM] | EC50 (A549 cells) [nM] |
| --- | --- | --- |
| Cc1ccc(CNC(=O)c2cn(CC(F)CCn3ccc(NC(=O)CC4CCCOC4)cc3=O)nn2)cn1 (centres unmarked) [Example 196, 1-(2-fluoro-4-{4-[2-(oxan-3-yl)acetamido]-2-oxo-1,2-dihydropyridin-1-yl}butyl)-N-[(6-methylpyridin-3-yl)methyl]-1H-1,2,3-triazole-4-carboxamide] | < 100 | 500 to 5000 |
| Cc1ccc(CNC(=O)c2cn(CC(F)CCn3ccc(NC(=O)CC4CCCC4)cc3=O)nn2)cn1 (centres unmarked) [Example 199, 1-{4-[4-(2-cyclopentylacetamido)-2-oxo-1,2-dihydropyridin-1-yl]-2-fluorobutyl}-N-[(6-methylpyridin-3-yl)methyl]-1H-1,2,3-triazole-4-carboxamide] | < 100 | < 100 |
| Cc1ccc(CNC(=O)c2cn(CC(F)CCn3ccc(NC(=O)CC4CCCO4)cc3=O)nn2)cn1 (centres unmarked) [Example 200, 1-(2-fluoro-4-{2-oxo-4-[2-(oxolan-2-yl)acetamido]-1,2-dihydropyridin-1-yl}butyl)-N-[(6-methylpyridin-3-yl)methyl]-1H-1,2,3-triazole-4-carboxamide] | 100 to 500 | 500 to 5000 |
| O=C(CC1CCC1)Nc1ccn(CCCCn2cc(C(=O)NCc3cccc(OC(F)(F)F)c3)nn2)c(=O)c1 [Example 201, 1-{4-[4-(2-cyclobutylacetamido)-2-oxo-1,2-dihydropyridin-1-yl]butyl}-N-{[3-(trifluoromethoxy)phenyl]methyl}-1H-1,2,3-triazole-4-carboxamide] | < 100 | 100 to 500 |
| O=C(Cc1ccsc1)Nc1ccn(CCCCn2cc(C(=O)NCc3cccc(OC(F)(F)F)c3)nn2)c(=O)c1 [Example 203, 1-(4-{2-oxo-4-[2-(thiophen-3-yl)acetamido]-1,2-dihydropyridin-1-yl}butyl)-N-{[3-(trifluoromethoxy)phenyl]methyl}-1H-1,2,3-triazole-4-carboxamide] | < 100 | 100 to 500 |
| O=C1CCC(CC(=O)Nc2ccn(CCCCn3cc(C(=O)NCc4cccc(OC(F)(F)F)c4)nn3)c(=O)c2)CC1 [Example 204, 1-(4-{2-oxo-4-[2-(4-oxocyclohexyl)acetamido]-1,2-dihydropyridin-1-yl}butyl)-N-{[3-(trifluoromethoxy)phenyl]methyl}-1H-1,2,3-triazole-4-carboxamide] | < 100 | 500 to 5000 |
| CC(C)(C)OC(=O)N1CCC(CC(=O)Nc2ccn(CCCCn3cc(C(=O)NCc4cccc(OC(F)(F)F)c4)nn3)c(=O)c2)CC1 [Example 205, tert-butyl 4-{[(2-oxo-1-{4-[4-({[3-(trifluoromethoxy)phenyl]methyl}carbamoyl)-1H-1,2,3-triazol-1-yl]butyl}-1,2-dihydropyridin-4-yl)carbamoyl]methyl}piperidine-1-carboxylate] | < 100 | < 100 |
| O=C(CC1CCC(O)CC1)Nc1ccn(CCCCn2cc(C(=O)NCc3cccc(OC(F)(F)F)c3)nn2)c(=O)c1 (centres unmarked) [Example 208, 1-(4-{4-[2-(4-hydroxycyclohexyl)acetamido]-2-oxo-1,2-dihydropyridin-1-yl}butyl)-N-{[3-(trifluoromethoxy)phenyl]methyl}-1H-1,2,3-triazole-4-carboxamide] | < 100 | 500 to 5000 |
| CC(C)(C)OC(=O)N[C@H]1CCC[C@H](C(=O)Nc2ccn(CCCCn3cc(C(=O)NCc4cccc(OC(F)(F)F)c4)nn3)c(=O)c2)C1 [Example 211, tert-butyl N-[(1S,3S)-3-[(2-oxo-1-{4-[4-({[3-(trifluoro-methoxy)phenyl]methyl}carbamoyl)-1H-1,2,3-triazol-1-yl]butyl}-1,2-dihydropyridin-4-yl)carbamoyl]cyclohexyl]carbamate] | < 100 | 100 to 500 |
| O=C(CN1CCOCC1)Nc1ccn(CCC(F)Cn2cc(C(=O)NCc3cccc(OC(F)(F)F)c3)nn2)c(=O)c1 (centres unmarked) [Example 213, 1-(2-fluoro-4-{4-[2-(morpholin-4-yl)acetamido]-2-oxo-1,2-dihydropyridin-1-yl}butyl)-N-{[3-(trifluoromethoxy)phenyl]methyl}-1H-1,2,3-triazole-4-carboxamide] | 100 to 500 | 500 to 5000 |
| O=C(CC1CCC1)Nc1ccn(CCC(F)Cn2cc(C(=O)NCc3cc(Cl)ccc3F)nn2)c(=O)c1 (centres unmarked) [Example 214, N-[(5-chloro-2-fluorophenyl)methyl]-1-{4-[4-(2-cyclobutylacetamido)-2-oxo-1,2-dihydropyridin-1-yl]-2-fluorobutyl}-1H-1,2,3-triazole-4-carboxamide] | < 100 | 100 to 500 |
| O=C(CC1CCCCO1)Nc1ccn(CCC(F)Cn2cc(C(=O)NCc3cc(Cl)ccc3F)nn2)c(=O)c1 (centres unmarked) [Example 215, N-[(5-chloro-2-fluorophenyl)methyl]-1-(2-fluoro-4-{4-[2-(oxan-2-yl)acetamido]-2-oxo-1,2-dihydropyridin-1-yl}butyl)-1H-1,2,3-triazole-4-carboxamide] | < 100 | 100 to 500 |
| O=C(Cc1ccccc1)Nc1ccn(CCC(F)Cn2cc(C(=O)NCc3cc(Cl)ccc3F)nn2)c(=O)c1 (centres unmarked) [Example 216, N-[(5-chloro-2-fluorophenyl)methyl]-1-{2-fluoro-4-[2-oxo-4-(2-phenylacetamido)-1,2-dihydropyridin-1-yl]butyl}-1H-1,2,3-triazole-4-carboxamide] | < 100 | 100 to 500 |
| O=C(CC1CCC1)Nc1ccn(CCC(F)Cn2cc(C(=O)NCc3cccc(OC(F)(F)F)c3)nn2)c(=O)c1 (stereo not drawn) [Example 217, l-{4-[4-(2-cyclobutylacetamido)-2-oxo-1,2-dihydropyridin-1-yl]-2-fluorobutyl}-N-{[3-(trifluoromethoxy)phenyl]methyl}-1H-1,2,3-triazole-4-carboxamide] | < 100 | < 100 |
